{"source": "the Deep4Chem optical property database", "experiment": "photoluminescence quantum yield (fraction); solvent given as SMILES"}
{"compound": "c1ccc([B-]23Oc4ccccc4-c4c5[n+]6c(c([n+]42)-c2ccccc2O3)-c2ccccc2O[B-]6(c2ccccc2)Oc2ccccc2-5)cc1", "values": [{"measurement": "photoluminescence quantum yield", "setting": "in ClCCl", "result": 0.2}]}
{"compound": "COc1ccc(-c2csc(-c3ccncc3)n2)cc1", "values": [{"measurement": "photoluminescence quantum yield", "setting": "in CC#N", "result": 0.002}, {"measurement": "photoluminescence quantum yield", "setting": "in CCO", "result": 0.22}, {"measurement": "photoluminescence quantum yield", "setting": "in CN(C)C=O", "result": 0.158}, {"measurement": "photoluminescence quantum yield", "setting": "in CS(C)=O", "result": 0.163}, {"measurement": "photoluminescence quantum yield", "setting": "in Cc1ccccc1", "result": 0.037}, {"measurement": "photoluminescence quantum yield", "setting": "in ClCCl", "result": 0.089}]}
{"compound": "C(=C\\c1nc2ccccc2o1)/c1ccccc1", "values": [{"measurement": "photoluminescence quantum yield", "setting": "in C1CCCCC1", "result": 0.05}, {"measurement": "photoluminescence quantum yield", "setting": "in CO", "result": 0.006}]}
{"compound": "CCOC(=O)c1c2c3c(ccc(Cl)c3c3cc4c(cc13)[Si](C)(C)O[Si]4(C)C)N(C)C2=O", "values": [{"measurement": "photoluminescence quantum yield", "setting": "in CC#N", "result": 0.45}]}
{"compound": "CCOC(=O)c1cc(C(=O)OCC)c2cc(NC)ccc2n1", "values": [{"measurement": "photoluminescence quantum yield", "setting": "in CCO", "result": 0.47}]}
{"compound": "N#Cc1cc(-n2c3ccccc3c3ncccc32)c(-n2c3ccccc3c3ncccc32)cc1C#N", "values": [{"measurement": "photoluminescence quantum yield", "setting": "in c1cc(-n2c3ccccc3c3ccccc32)cc(-n2c3ccccc3c3ccccc32)c1", "result": 0.93}]}
{"compound": "Cc1ccc(-n2c(-c3ccccc3[N-]S(=O)(=O)c3ccc(C)cc3)[nH+]c3c4ccccc4c4ccccc4c32)cc1", "values": [{"measurement": "photoluminescence quantum yield", "setting": "in Cc1ccccc1", "result": 0.468}]}
{"compound": "FC(F)(F)c1ccc(/C=C/c2nc3c(ccc4ccccc43)s2)cc1", "values": [{"measurement": "photoluminescence quantum yield", "setting": "in C1CCCCC1", "result": 0.14}, {"measurement": "photoluminescence quantum yield", "setting": "in CC#N", "result": 0.14}]}
{"compound": "Cc1nc2c(ccc3ccc(N(C)C)cc32)oc1=O", "values": [{"measurement": "photoluminescence quantum yield", "setting": "in c1ccccc1", "result": 0.084}]}
{"compound": "CC(C)[Si]1(C(C)C)c2ccccc2-c2ccc(N(C)C)cc21", "values": [{"measurement": "photoluminescence quantum yield", "setting": "in C1CCCCC1", "result": 0.26}, {"measurement": "photoluminescence quantum yield", "setting": "in CC#N", "result": 0.28}, {"measurement": "photoluminescence quantum yield", "setting": "in CCO", "result": 0.11}, {"measurement": "photoluminescence quantum yield", "setting": "in CCOCC", "result": 0.22}, {"measurement": "photoluminescence quantum yield", "setting": "in CS(C)=O", "result": 0.12}, {"measurement": "photoluminescence quantum yield", "setting": "in ClCCl", "result": 0.13}, {"measurement": "photoluminescence quantum yield", "setting": "in c1ccccc1", "result": 0.22}]}
{"compound": "N#Cc1ccc(C[C@H](N)C(=O)O)cc1", "values": [{"measurement": "photoluminescence quantum yield", "setting": "in C1CCOC1", "result": 0.031}, {"measurement": "photoluminescence quantum yield", "setting": "in CC#N", "result": 0.026}, {"measurement": "photoluminescence quantum yield", "setting": "in CC(C)O", "result": 0.071}, {"measurement": "photoluminescence quantum yield", "setting": "in CC(O)CO", "result": 0.1}, {"measurement": "photoluminescence quantum yield", "setting": "in CCCCO", "result": 0.079}, {"measurement": "photoluminescence quantum yield", "setting": "in CCCO", "result": 0.074}, {"measurement": "photoluminescence quantum yield", "setting": "in CCO", "result": 0.034}, {"measurement": "photoluminescence quantum yield", "setting": "in CO", "result": 0.076}, {"measurement": "photoluminescence quantum yield", "setting": "in NC=O", "result": 0.083}, {"measurement": "photoluminescence quantum yield", "setting": "in O", "result": 0.11}, {"measurement": "photoluminescence quantum yield", "setting": "in O=CO", "result": 0.17}]}
{"compound": "O=C1NC(c2ccccc2)=N/C1=C\\c1ccccc1", "values": [{"measurement": "photoluminescence quantum yield", "setting": "in C1COCCO1", "result": 0.001}]}
{"compound": "CCN(CC)c1ccc2cc(C#N)/c(=N\\C(=O)c3ccco3)oc2c1", "values": [{"measurement": "photoluminescence quantum yield", "setting": "in CCO", "result": 0.033}, {"measurement": "photoluminescence quantum yield", "setting": "in ClCCl", "result": 0.9}]}
{"compound": "N#Cc1ccc(-c2cn3cc(-c4ccccc4)c[n+]3[n-]2)cc1", "values": [{"measurement": "photoluminescence quantum yield", "setting": "in ClCCl", "result": 0.48}]}
{"compound": "COc1ccc(-c2cc(-c3ccc(C#N)cc3)nn2C)cc1", "values": [{"measurement": "photoluminescence quantum yield", "setting": "in ClCCl", "result": 0.3}]}
{"compound": "c1cc2c3c(c1)-c1cccc4ccn(c14)B3n1ccc3cccc-2c31", "values": [{"measurement": "photoluminescence quantum yield", "setting": "in C1CCOC1", "result": 0.65}]}
{"compound": "FC(F)(F)c1ccc2oc3nc4oc5ccc(N(c6ccccc6)c6ccccc6)cc5c4cc3c2c1", "values": [{"measurement": "photoluminescence quantum yield", "setting": "in ClC(Cl)Cl", "result": 0.099}]}
{"compound": "CC1(C)Cc2c(c3ccccc3c3nc4ccccc4nc23)O1", "values": [{"measurement": "photoluminescence quantum yield", "setting": "in C1CCCCC1", "result": 0.082}, {"measurement": "photoluminescence quantum yield", "setting": "in C1CCOC1", "result": 0.13}, {"measurement": "photoluminescence quantum yield", "setting": "in CN(C)C=O", "result": 0.44}, {"measurement": "photoluminescence quantum yield", "setting": "in CO", "result": 0.37}, {"measurement": "photoluminescence quantum yield", "setting": "in ClC(Cl)Cl", "result": 0.26}, {"measurement": "photoluminescence quantum yield", "setting": "in c1ccccc1", "result": 0.2}]}
{"compound": "Clc1ccc(/C=C/c2nc3ccccc3s2)cc1", "values": [{"measurement": "photoluminescence quantum yield", "setting": "in C1CCCCC1", "result": 0.04}, {"measurement": "photoluminescence quantum yield", "setting": "in CO", "result": 0.01}]}
{"compound": "CC(C)c1cccc(C(C)C)c1N1C(=O)c2ccc3c(-c4ccccc4)c4c5ccc6c7c(ccc(c(-c8ccccc8)c4c4ccc(c2c34)C1=O)c75)C(=O)N(c1c(C(C)C)cccc1C(C)C)C6=O", "values": [{"measurement": "photoluminescence quantum yield", "setting": "in ClCCl", "result": 0.24}]}
{"compound": "COC(=O)CNC(=O)c1nc2c(N(C)C)nc(N(C)C)nc2n1Cc1ccccc1", "values": [{"measurement": "photoluminescence quantum yield", "setting": "in C1COCCO1", "result": 0.95}, {"measurement": "photoluminescence quantum yield", "setting": "in CC#N", "result": 0.95}, {"measurement": "photoluminescence quantum yield", "setting": "in CO", "result": 0.9}, {"measurement": "photoluminescence quantum yield", "setting": "in ClCCl", "result": 0.91}]}
{"compound": "c1ccc(-c2nc(-c3ccccc3)nc(-c3ccc(-n4c5ccccc5c5c6oc7ccccc7c6ccc54)cc3)n2)cc1", "values": [{"measurement": "photoluminescence quantum yield", "setting": "in O=P(c1ccccc1)(c1ccccc1)c1ccccc1Oc1ccccc1P(=O)(c1ccccc1)c1ccccc1", "result": 0.853}]}
{"compound": "CC(C)(C)c1ccc(Oc2cc3c4c(cc(Oc5ccc(C(C)(C)C)cc5)c5c6c(Oc7ccc(C(C)(C)C)cc7)cc7c8c(cc(Oc9ccc(C(C)(C)C)cc9)c(c2c45)c86)C(=O)N(Cc2ccccc2)C7=O)C(=O)N(Cc2ccccc2)C3=O)cc1", "values": [{"measurement": "photoluminescence quantum yield", "setting": "in ClC(Cl)Cl", "result": 0.73}]}
{"compound": "CC[n+]1c(C=C2C(=O)C(C=C3Sc4cc(Cl)ccc4N3C)=C2[O-])[se]c2ccccc21", "values": [{"measurement": "photoluminescence quantum yield", "setting": "in CC(C)O", "result": 0.17}]}
